Results from US20230104936A1, “TRPML MODULATORS” (Casma Therapeutics, Inc., priority 2019, published 2023).

System: TFEB
Assay: TFEB nuclear translocation assay, HeLa wt cells
Assay type: cell-based
Conditions: 2 hrs compound treatment, Table 1 does not say HeLa wt or TRPML1 KO
Procedure, shortened: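 AC50 derived from the ratio of nuclear to perinuclear ring (−5 μm) anti-TFEB immunofluorescence, imaged at ×20 over four fields per well. HeLa wt or TRPML1 KO cells were exposed to compounds for 2 hrs at 37° C, then PFA-fixed and counterstained with Hoechst.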

Row | Structure (SMILES) | AC50 (Homo sapiens, HeLa, 2 h) [µM] | AC50 [µM]
1 | CS(=O)(=O)c1ccc(S(=O)(=O)Nc2ccccc2N2CCC3(CC2)CN(Cc2cccnc2)c2cc(F)ccc23)cc1 [Compound A-407, N-(2-{6-fluoro-1-[(pyridin-3-yl)methyl]-1,2-dihydrospiro[indole-3,4′-piperidin]-1′-yl}phenyl)-4-methanesulfonylbenzene-1-sulfonamide] | ≤ 2 | –
2 | COCC1CCN(c2ccccc2NS(=O)(=O)c2ccc3c(c2)CC(C)(C)O3)CC1 [Compound A-614, N-{2-[4-(methoxymethyl)piperidin-1-yl]phenyl}-2,2-dimethyl-2,3-dihydro-1-benzofuran-5-sulfonamide] | ≤ 2 | –
3 | CS(=O)(=O)c1ccc(S(=O)(=O)Nc2ccccc2N2CCC3(CC2)CN(Cc2ccncc2)c2cc(F)ccc23)cc1 [Compound A-403, N-(2-{6-fluoro-1-[(pyridin-4-yl)methyl]-1,2-dihydrospiro[indole-3,4′-piperidin]-1′-yl}phenyl)-4-methanesulfonylbenzene-1-sulfonamide] | 2.01 to 8 | –
4 | CN(C)S(=O)(=O)c1ccc(S(=O)(=O)Nc2cccc(F)c2N2CCC(CN3C4CCC3COC4)CC2)cc1 [Compound A-790, N4-{3-fluoro-2-[4-({3-oxa-8-azabicyclo[3.2.1]octan-8-yl}methyl)piperidin-1-yl]phenyl}-N1,N1-dimethylbenzene-1,4-disulfonamide] | ≤ 2 | –
5 | CN1CC2(CCN(c3ccccc3NS(=O)(=O)c3ccc(S(C)(=O)=O)cc3)CC2)c2ccc(F)cc21 [Compound A-251, N-(2-{6-fluoro-1-methyl-1,2-dihydrospiro[indole-3,4′-piperidin]-1′-yl}phenyl)-4-methanesulfonylbenzene-1-sulfonamide] | ≤ 2 | –
6 | CCC1(N2CCN(c3ccccc3NS(=O)(=O)c3ccc(S(=O)(=O)N(C)C)cc3)CC2)COC1 [Compound A-464, N4-{2-[4-(3-ethyloxetan-3-yl)piperazin-1-yl]phenyl}-N1,N1-dimethylbenzene-1,4-disulfonamide] | 2.01 to 8 | –
7 | CN1CC2(CCN(c3ccccc3NS(=O)(=O)c3ccc(S(=O)(=O)N(C)C)cc3)CC2)c2cccnc21 [Compound A-331, N1,N1-dimethyl-N4-(2-{1′-methyl-1′,2′-dihydrospiro[piperidine-4,3′-pyrrolo[2,3-b]pyridin]-1-yl}phenyl)benzene-1,4-disulfonamide] | ≤ 2 | –
8 | CN(C)S(=O)(=O)c1ccc(S(=O)(=O)C(c2cccc(F)c2N2CCCCC2)C2CC2)cc1 (single isomer, unassigned) [Compound A-983, 4-((cyclopropyl(3-fluoro-2-(piperidin-1-yl)phenyl)methyl)sulfonyl)-N,N-dimethylbenzenesulfonamide] | – | ≤ 2
9 | COCC1(C)CCN(c2ccccc2NS(=O)(=O)Cc2cccc(Cl)c2)CC1 [Compound A-602, 1-(3-chlorophenyl)-N-{2-[4-(methoxymethyl)-4-methylpiperidin-1-yl]phenyl}methanesulfonamide] | 2.01 to 8 | –
10 | Cc1ccc(CS(=O)(=O)Nc2ccccc2N2CCC3(CC2)COC(C)(C)C3)c(F)c1 [Compound A-688, N-(2-{3,3-dimethyl-2-oxa-8-azaspiro[4.5]decan-8-yl}phenyl)-1-(2-fluoro-4-methylphenyl)methanesulfonamide] | 2.01 to 8 | –
11 | CC(c1cc(Cl)cnc1N1CCC(CN2CCC(F)(F)CC2)CC1)S(=O)(=O)c1ccc2c(c1)CCC2 (single isomer, unassigned) [Compound A-993, 5-chloro-2-(4-((4,4-difluoropiperidin-1-yl)methyl)piperidin-1-yl)-3-(1-((2,3-dihydro-1H-inden-5-yl)sulfonyl)ethyl)pyridine] | ≤ 2 | –
12 | CN(C)S(=O)(=O)c1ccc(S(=O)(=O)Nc2ccccc2N2CC3CN(Cc4ccccc4)CC3C2)cc1 (stereo not drawn) [Compound A-502, N4-(2-{5-benzyl-octahydropyrrolo[3,4-c]pyrrol-2-yl}phenyl)-N1,N1-dimethylbenzene-1,4-disulfonamide; formic acid] | ≤ 2 | –
13 | COCC1(C)CC2CCC(C1)N2c1ccccc1NS(=O)(=O)c1ccc(S(=O)(=O)N(C)C)cc1 (stereo not drawn) [Compound A-734, N4-{2-[3-(methoxymethyl)-3-methyl-8-azabicyclo[3.2.1]octan-8-yl]phenyl}-N1,N1-dimethylbenzene-1,4-disulfonamide] | ≤ 2 | –
14 | COCCS(=O)(=O)c1ccc(S(=O)(=O)Nc2ccccc2N2CCC(c3ccc(Cl)cc3F)CC2)cc1 [Compound A-701, N-{2-[4-(4-chloro-2-fluorophenyl)piperidin-1-yl]phenyl}-4-(2-methoxyethanesulfonyl)benzene-1-sulfonamide] | ≤ 2 | –
15 | COc1ccc(S(=O)(=O)Nc2ccccc2OCc2ccc(F)cc2F)cc1 [Compound A-187, N-(2-((2,4-difluorobenzyl)oxy)phenyl)-4-methoxybenzenesulfonamide] | ≥ 10 | –
16 | Cc1ccc(F)c(CS(=O)(=O)Nc2ccccc2N2CCC3(CC2)COC(C)(C)C3)c1 [Compound A-679, N-(2-{3,3-dimethyl-2-oxa-8-azaspiro[4.5]decan-8-yl}phenyl)-1-(2-fluoro-5-methylphenyl)methanesulfonamide] | ≤ 2 | –
17 | C[C@@H]1CN(CC2CCN(c3ccccc3NS(=O)(=O)c3ccc(S(=O)(=O)N(C)C)cc3)CC2)C[C@H](C)O1 [Compound A-544, N4-[2-(4-{[(2R,6S)-2,6-dimethylmorpholin-4-yl]methyl}piperidin-1-yl)phenyl]-N1,N1-dimethylbenzene-1,4-disulfonamide] | ≤ 2 | –
18 | CN(C)S(=O)(=O)c1ccc(S(=O)(=O)Nc2ccccc2N2CCC(c3ccccc3-c3nnn[nH]3)CC2)cc1 [Compound A-280, N1,N1-dimethyl-N4-(2-{4-[2-(1H-1,2,3,4-tetrazol-5-yl)phenyl]piperidin-1-yl}phenyl)benzene-1,4-disulfonamide] | ≥ 10 | –
19 | Cc1ccc(S(=O)(=O)n2cc3c(N4CCN(C5CCCCC5)CC4)cccc3n2)cc1 [Compound A-561] | 2.01 to 8 | –
20 | CC(c1ccccc1N1CCN(C(=O)OCc2ccccc2)CC1)S(=O)(=O)c1ccc(S(=O)(=O)N(C)C)cc1 (stereo not drawn) [Compound A-556, benzyl 4-(2-{1-[4-(dimethylsulfamoyl)benzenesulfonyl]ethyl}phenyl)piperazine-1-carboxylate] | ≤ 2 | –
21 | Cc1nn(S(=O)(=O)c2ccc(S(=O)(=O)N(C)C)cc2)cc1N1CCC(c2ccc(Cl)cc2F)CC1 [Compound A-50, 4-((4-(4-(4-chloro-2-fluorophenyl)piperidin-1-yl)-3-methyl-1H-pyrazol-1-yl)sulfonyl)-N,N-dimethylbenzenesulfonamide] | 2.01 to 8 | –
22 | CN(C)S(=O)(=O)c1ccc(S(=O)(=O)Nc2ccccc2N2CCN(c3ccc(Cl)cc3F)CC2=O)cc1 [Compound A-283, N4-{2-[4-(4-chloro-2-fluorophenyl)-2-oxopiperazin-1-yl]phenyl}-N1,N1-dimethylbenzene-1,4-disulfonamide] | ≥ 10 | –
23 | CC1(C)CC2(CCN(c3ccccc3NS(=O)(=O)c3ccc4c(c3)C(C)(C)CO4)CC2)CO1 [Compound A-742, N-(2-{3,3-dimethyl-2-oxa-8-azaspiro[4.5]decan-8-yl}phenyl)-3,3-dimethyl-2,3-dihydro-1-benzofuran-5-sulfonamide] | ≤ 2 | –
24 | Cc1nn(C)c(C2CCN(c3ccc(Cl)cc3F)CC2)c1NS(=O)(=O)c1ccc(S(=O)(=O)N(C)C)cc1 [Compound A-33, N1-(5-(1-(4-chloro-2-fluorophenyl)piperidin-4-yl)-1,3-dimethyl-1H-pyrazol-4-yl)-N4,N4-dimethylbenzene-1,4-disulfonamide] | ≥ 10 | –
